This note sets out measurements from ChEMBL document CHEMBL1150139, “Four new neuroprotective iridoid glycosides from Scrophularia buergeriana roots” (2002).

What all share (assay type): functional
Test [1] has as its system Cortical neurone. Briefly: Neuroprotective activity against Sprague-Dawley rat cortical neurons assessed as glutamate-induced LDH release at 0.1 uM for 1 hr before glutamate challenge measured after 24 hrs by spectrophotometry.
Test [2] has as its system Cortical neurone. Briefly: Neuroprotective activity against Sprague-Dawley rat cortical neurons assessed as glutamate-induced LDH release at 1 uM for 1 hr before glutamate challenge measured after 24 hrs by spectrophotometry.
Test [3] has as its system Cortical neurone. Briefly: Neuroprotective activity against Sprague-Dawley rat cortical neurons assessed as glutamate-induced LDH release at 10 uM for 1 hr before glutamate challenge measured after 24 hrs by spectrophotometry.

Take `COc1ccc(/C=C/C(=O)O[C@@]2(C)C[C@@H](O)[C@]3(O)C=CO[C@@H](O[C@@H]4O[C@H](CO)[C@@H](O)[C@H](O)[C@H]4O)[C@@H]32)cc1`: the Activity in the test with Cortical neurone [1] stood at 54.9%; in the test on Cortical neurone [2], 61.8%; in the test on Cortical neurone [3], 58.9%.
For `COc1ccc(/C=C\C(=O)O[C@@]2(C)C[C@@H](O)[C@]3(O)C=CO[C@@H](O[C@@H]4O[C@H](CO)[C@@H](O)[C@H](O)[C@H]4O)[C@@H]32)cc1` the same measures were 40.7%, 48.2% and 49.6%.
With `COc1ccc(/C=C\C(=O)OC[C@H]2O[C@@H](O[C@@H]3OC=C[C@@]4(O)[C@H](O)C[C@](C)(O)[C@@H]34)[C@H](O)[C@@H](O)[C@@H]2O)cc1`, the Activity in the test with Cortical neurone [1] amounted to 33.3%; with Cortical neurone [2], 47.6%; with Cortical neurone [3], 46.6%.
As to `COc1ccc(/C=C/C(=O)OC[C@H]2O[C@@H](O[C@@H]3OC=C[C@@]4(O)[C@H](O)C[C@](C)(O)[C@@H]34)[C@H](O)[C@@H](O)[C@@H]2O)cc1`, the Activity was 39.1% in the test on Cortical neurone [1], 60.9% in the test on Cortical neurone [2] and 60.3% in the test on Cortical neurone [3].
For the compound `N#Cc1cc2c(cc1[N+](=O)[O-])=NC(=O)C(=O)N=2`, the Activity with Cortical neurone [1] is on record as 28.1%; in the test on Cortical neurone [2], 47.3%; with Cortical neurone [3], 61.6%.
Turning to `NC(CCCP(=O)(O)O)C(=O)O` (racemic), the figures for the Activity with Cortical neurone [1], in the test with Cortical neurone [2] and in the test on Cortical neurone [3] were 5.7%, 27.8% and 43.6%, respectively.
In the case of `C[C@]12N[C@H](Cc3ccccc31)c1ccccc12.O=C(O)/C=C\C(=O)O` [DIZOCILPINE MALEATE], the Activity was 31.8% with Cortical neurone [1], 61.5% with Cortical neurone [2] and 83.6% in the test on Cortical neurone [3].
Take `C[C@]1(O)C[C@@H](O)[C@]2(O)C=CO[C@@H](O[C@H]3O[C@H](CO)[C@@H](O)[C@H](O)[C@H]3O)[C@@H]21` [HARPAGIDE]: the Activity in the test on Cortical neurone [1] turned out to be 41.4%; with Cortical neurone [2], 42.2%; with Cortical neurone [3] it was 46.2%.
On the same counts, the results for `C[C@]1(OC(=O)/C=C/c2ccccc2)C[C@@H](O)[C@]2(O)C=CO[C@@H](O[C@@H]3O[C@H](CO)[C@@H](O)[C@H](O)[C@H]3O)[C@@H]21` [HARPAGOSIDE] are 38.2%, 38.5% and 44.7%.
For `C[C@]1(OC(=O)/C=C\c2ccccc2)C[C@@H](O)[C@]2(O)C=CO[C@@H](O[C@@H]3O[C@H](CO)[C@@H](O)[C@H](O)[C@H]3O)[C@@H]21` [Z-harpagoside], the Activity is recorded as 26.4% with Cortical neurone [1], 38.8% with Cortical neurone [2] and 42.5% in the test with Cortical neurone [3].
